From BigSolDB 2.1

CC1=C[C@H](O)CC(C)(C)[C@H]1/C=C/C(C)=C/C=C/C(C)=C/C=C/C=C(C)/C=C/C=C(C)/C=C/C1=C(C)C[C@@H](O)CC1(C)C
solubility (mole fraction)
Details	278.15 K	283.15 K	288.15 K	293.15 K	298.15 K	303.15 K	308.15 K	313.15 K	318.15 K	323.15 K
in ethanol	1.75e-05	1.96e-05	2.27e-05	2.63e-05	3.16e-05	3.75e-05	4.48e-05	5.32e-05	6.42e-05	7.72e-05
in ethylene glycol	2.68e-07	3.03e-07	3.48e-07	3.89e-07	4.43e-07	5.17e-07	6.12e-07	7.13e-07	8.45e-07	9.61e-07
in isopropanol	9.74e-07	1.03e-06	1.1e-06	1.18e-06	1.27e-06	1.39e-06	1.51e-06	1.67e-06	1.86e-06	2.13e-06
in methanol	2.31e-05	2.84e-05	3.77e-05	4.91e-05	6.72e-05	8.41e-05	0.000107	0.000134	0.000166	0.000207
